≈ marks a conversion by molar mass, not a printed value.
What was measured:
[1] = tested on: Staphylococcus aureus (ATCC 43300); test: Antibacterial MIC, broth microdilution (CLSI); format: cell-based; details: for MIC80: Staphylococcus aureus, ATCC43300, read-out: MIC80 S. aureus
[2] = tested on: PolyAU double stranded RNA; test: Fluorescence intercalator displacement (FID) assay, SYBR-safe probe; details: 20 μM compound, 30° C., lower % = stronger binding
Protocol: (§1) The ability of compounds of the invention to bind to DNA and RNA was assessed using a fluorescence intercalator displacement assay. Genomic double stranded DNA (salmon) or PolyAU double stranded RNA is treated with probe molecule (Sybr-Safe) that increases its fluorescence upon binding to nucleic acids.
(§2) polyAU RNA (Polyadenylic acid—Polyuridylic acid sodium salt, double-stranded homopolymer, P1537, Merck) or genomic DNA (Deoxyribonucleic acid sodium salt from salmon testes, D1626, Merck) was dissolved in 1 mM pH 7.4 phosphate buffer (containing 0.27 mM potassium chloride, 13.7 mM sodium chloride) to a concentration of 1 mg/mL in, SybrSafe (SYBR® Safe DNA Gel Stain, ×10,000 in DMSO, S33102 Invitrogen) was used as supplied by the manufacturer in DMSO, and compounds of the invention were prepared as 10 mM stocks in DMSO. These stock solutions were diluted appropriately with each other and 1 mM phosphate buffer to give test solutions comprised of 20 μM compound of the invention, 12500-fold dilution of SybrSafe and 3.76 ng/mL RNA/DNA. Control solutions of RNA/DNA and SybrSafe, RNA/DNA, and SybrSafe at these concentrations were also prepared. Test and control solutions were heated to 30° C. and the fluorescence of each solution was measured using the SYBER filter setting of a StepOnePlus using melt analysis mode (StepOne Software v2.3). The reduction of fluorescence due to the binding of the compound of the invention to the RNA/DNA was calculated as a normalised percentage based on the fluorescence measured due to the control with SybrSafe and RNA/DNA as maximum and the control with only SybrSafe as minimum.
(§3) A reduction in normalised % is indicative of probe displacement and thus strong nucleic acid binding.

[3] = tested on: Genomic double stranded DNA (salmon); test: as above; details: 20 μM compound, 30° C., lower % = stronger binding
Protocol: as §1, §2, §3

[4] = tested on: Escherichia coli (ATCC 25922); test: Antibacterial MIC, broth microdilution (CLSI); format: cell-based; details: for MIC80: Escherichia coli, ATCC25922, read-out: MIC80 E. coli
[5] = tested on: Enterococcus faecalis (ATCC 51299); test: Antibacterial MIC, broth microdilution (CLSI); format: cell-based; details: for MIC80: Enterococcus faecalis, ATCC51299, read-out: MIC80 E. faecalis
[6] = tested on: T. vaginalis; test: Trichomonas resorufin assay; format: cell-based; details: Trichomonas vaginalis, read-out: IC50 T. vaginalis

Compound	MIC80 [1]	% Normalised Fluorescence with polyAU RNA [2]	% Normalised Fluorescence with gDNA [3]	MIC80 [4]	MIC80 [5]	MIC80 S. aureus ([1]; MIC at 80% inhibition, ATCC 43300)	MIC80 E. coli ([4]; MIC at 80% inhibition, ATCC 25922)	MIC80 E. faecalis ([5]; MIC at 80% inhibition, ATCC 51299)	IC50 [6]
[H]/N=C(\CCNC(=O)c1cc(NC(=O)c2cc(NC(=O)c3ccc(C=Cc4ccc5nonc5c4)cc3)cn2C)cn1C)NCCc1ccccc1 [Ia43, (E)-4-(4-(2-(benzo[c][1,2,5]oxadiazol-5-yl)vinyl)benzamido)-N-(5-((3-imino-3-(phenethylamino)propyl)carbamoyl)-1-methyl-1H-pyrrol-3-yl)-1-methyl-1H-pyrrole-2-carboxamide]	< 5 µM	42%	15%	> 100 µM	< 5 µM				
CCCCCCC[N+](C)(C)CCNC(=O)c1cc(NC(=O)c2cc(NC(=O)c3ccc(/C=C/c4cnc5ccccc5c4)cc3)cn2C)cn1C [Ic6, (E)-N,N-dimethyl-N-(2-(1-methyl-4-(1-methyl-4-(4-(2-(quinolin-3-yl)vinyl)benzamido)-1H-pyrrole-2-carboxamido)-1H-pyrrole-2-carboxamido)ethyl)heptan-1-aminium]		12%	50%			*** (*** means MIC80 <= 5 μM)	— (— means MIC80 > 100 μM)	** (** means 5 μM < MIC80 <= 25 μM)	
CCCCCCCCCCCCCCCCC[N+](C)(C)CCNC(=O)c1cc(NC(=O)c2cc(NC(=O)c3ccc(/C=C/c4cnc5ccccc5c4)cc3)cn2C)cn1C [Ic16, (E)-N,N-dimethyl-N-(2-(1-methyl-4-(1-methyl-4-(4-(2-(quinolin-3-yl)vinyl)benzamido)-1H-pyrrole-2-carboxamido)-1H-pyrrole-2-carboxamido)ethyl)heptadecan-1-aminium]		64%	98%						
[H]/N=C(\CCNC(=O)c1cc(NC(=O)c2cc(NC(=O)c3ccc(C=Cc4ccc5nonc5c4)cc3)cn2C)cn1C)NCCN1CCN(C)CC1 [Ia42, (E)-4-(4-(2-(benzo[c][1,2,5]oxadiazol-5-yl)vinyl)benzamido)-N-(5-((3-imino-3-((2-(4-methylpiperazin-1-yl)ethyl)amino)propyl)carbamoyl)-1-methyl-1H-pyrrol-3-yl)-1-methyl-1H-pyrrole-2-carboxamide]	5 to 25 µM (≈ 3.53 to 17.6 µg/mL)	4%	20%	> 100 µM	5 to 25 µM (≈ 3.53 to 17.6 µg/mL)				
CC/N=C(/CCNC(=O)c1cc(NC(=O)c2cc(NC(=O)c3ccc(/C=C/c4ccc5nonc5c4)cc3)cn2C)cn1C)NCC [Ia25, 4-(4-((E)-2-(benzo[c][1,2,5]oxadiazol-5-yl)vinyl)benzamido)-N-(5-(((Z)-3-(ethylamino)-3-(ethylimino)propyl)carbamoyl)-1-methyl-1H-pyrrol-3-yl)-1-methyl-1H-pyrrole-2-carboxamide]	25 to 100 µM (≈ 15.9 to 63.6 µg/mL)	12%	28%	> 100 µM	> 100 µM				
CN(C)c1ccc(/C=C/c2ccc(C(=O)Nc3c[nH]c(C(=O)Nc4cc(C(=O)NCCN5CCOCC5)n(C)c4)c3)cn2)cc1 [IIIb2, (E)-6-(4-(dimethylamino)styryl)-N-(5-((1-methyl-5-((2-morpholinoethyl)carbamoyl)-1H-pyrrol-3-yl)carbamoyl)-1H-pyrrol-3-yl)nicotinamide]	5 to 25 µM (≈ 3.05 to 15.3 µg/mL)	85%	31%	> 100 µM	> 100 µM				
Cn1cc(NC(=O)c2cc(NC(=O)c3ccc(/C=C/c4cnc5ccccc5c4)cc3)cn2C)cc1C(=O)NCCCCN1CCCCC1 [IVa11, (E)-1-methyl-4-(1-methyl-4-(4-(2-(quinolin-3-yl)vinyl)benzamido)-1H-pyrrole-2-carboxamido)-N-(4-(piperidin-1-yl)butyl)-1H-pyrrole-2-carboxamide]	5 to 25 µM (≈ 3.29 to 16.4 µg/mL)	68%	42%	> 100 µM	5 to 25 µM (≈ 3.29 to 16.4 µg/mL)				
CN(C)c1ccc(/C=C/c2ccc(C(=O)Nc3cc(C(=O)Nc4cc(C(=O)NCCCCN5CCCC5)n(C)c4)n(C)c3)cn2)cc1 [IVa15, (E)-6-(4-(dimethylamino)styryl)-N-(1-methyl-5-((1-methyl-5-((4-(pyrrolidin-1-yl)butyl)carbamoyl)-1H-pyrrol-3-yl)carbamoyl)-1H-pyrrol-3-yl)nicotinamide]	> 100 µM	8%	15%	> 100 µM	25 to 100 µM (≈ 15.9 to 63.7 µg/mL)				
Cn1cc(NC(=O)c2cc(NC(=O)c3ccc(/C=C/c4cnc5ccccc5c4)cc3)cn2C)cc1C(=O)NCCCCN1CCCC1 [IVa12, (E)-1-methyl-4-(1-methyl-4-(4-(2-(quinolin-3-yl)vinyl)benzamido)-1H-pyrrole-2-carboxamido)-N-(4-(pyrrolidin-1-yl)butyl)-1H-pyrrole-2-carboxamide]	5 to 25 µM (≈ 3.22 to 16.1 µg/mL)	71%	50%	> 100 µM	< 5 µM				
CN1CCN(CCNC(=N)CCNC(=O)c2cc(NC(=O)c3cc(NC(=O)c4ccc(/C=C/c5cnc6ccccc6c5)cc4)cn3C)cn2C)CC1 [Ia41, (E)-N-(3-imino-3-((2-(4-methylpiperazin-1-yl)ethyl)amino)propyl)-1-methyl-4-(1-methyl-4-(4-(2-(quinolin-3-yl)vinyl)benzamido)-1H-pyrrole-2-carboxamido)-1H-pyrrole-2-carboxamide]	5 to 25 µM (≈ 3.57 to 17.9 µg/mL)	6%	16%	> 100 µM	25 to 100 µM (≈ 17.9 to 71.5 µg/mL)				
CONC(=N)CCNC(=O)c1cc(NC(=O)c2cc(NC(=O)c3ccc(/C=C/c4cnc5ccccc5c4)cc3)cn2C)cn1C [Ia28, (E)-N-(3-imino-3-(methoxyamino)propyl)-1-methyl-4-(1-methyl-4-(4-(2-(quinolin-3-yl)vinyl)benzamido)-1H-pyrrole-2-carboxamido)-1H-pyrrole-2-carboxamide]	< 5 µM	66%	34%	> 100 µM	< 5 µM				
CCNC(=N)CCNC(=O)c1cc(NC(=O)c2cc(NC(=O)c3ccc(/C=C/c4ccc(OC)cc4)cc3)cn2C)cn1C [Ia20, (E)-N-(3-(ethylamino)-3-iminopropyl)-4-(4-(4-(4-methoxystyryl)benzamido)-1-methyl-1H-pyrrole-2-carboxamido)-1-methyl-1H-pyrrole-2-carboxamide]	5 to 25 µM (≈ 2.98 to 14.9 µg/mL)	6%	3%	25 to 100 µM (≈ 14.9 to 59.6 µg/mL)	5 to 25 µM (≈ 2.98 to 14.9 µg/mL)				
Cn1cc(NC(=O)c2ccc(/C=C/c3cnc4ccccc4c3)cc2)cc1C(=O)Nc1cc(C(=O)N2CCCCCC2)n(C)c1 [IVb3, (E)-N-(5-(azepane-1-carbonyl)-1-methyl-1H-pyrrol-3-yl)-1-methyl-4-(4-(2-(quinolin-3-yl)vinyl)benzamido)-1H-pyrrole-2-carboxamide]	25 to 100 µM (≈ 15 to 60.1 µg/mL)			> 100 µM	> 100 µM				5 to 50 µM
Cn1cc(NC(=O)c2ccc(/C=C/c3cnc4ccccc4c3)cc2)cc1C(=O)Nc1cc(C(=O)N2CCSCC2)n(C)c1 [IVb2, (E)-1-methyl-N-(1-methyl-5-(thiomorpholine-4-carbonyl)-1H-pyrrol-3-yl)-4-(4-(2-(quinolin-3-yl)vinyl)benzamido)-1H-pyrrole-2-carboxamide]	25 to 100 µM (≈ 15.1 to 60.5 µg/mL)			> 100 µM	> 100 µM				5 to 50 µM
[H]/N=C(\CCNC(=O)c1cc(NC(=O)c2cc(NC(=O)c3ccc(C=Cc4ccc5nonc5c4)cc3)cn2C)cn1C)NCCOCCOCCOC [Ia40, (E)-4-(4-(2-(benzo[c][1,2,5]oxadiazol-5-yl)vinyl)benzamido)-N-(5-((12-imino-2,5,8-trioxa-11-azatetradecan-14-yl)carbamoyl)-1-methyl-1H-pyrrol-3-yl)-1-methyl-1H-pyrrole-2-carboxamide]	< 5 µM	13%	32%	> 100 µM	5 to 25 µM (≈ 3.63 to 18.1 µg/mL)				
CCCCCCCCCCCCC[N+](C)(C)CCNC(=O)c1cc(NC(=O)c2cc(NC(=O)c3ccc(/C=C/c4cnc5ccccc5c4)cc3)cn2C)cn1C [Ic12, (E)-N,N-dimethyl-N-(2-(1-methyl-4-(1-methyl-4-(4-(2-(quinolin-3-yl)vinyl)benzamido)-1H-pyrrole-2-carboxamido)-1H-pyrrole-2-carboxamido)ethyl)tridecan-1-aminium]		38%	94%						

From patent US20250313546A1, “NUCLEIC ACID BINDERS” (UNIVERSITY OF STRATHCLYDE, priority 2022, published 2025)
